Test results published in US20260258050A1, “IMMUNOMODULATOR” (HITGEN INC., priority 2023, published 2026).

Legend:
Human IL-17A = biological target: T1, Human IL-17A (Homo sapiens, UniProt Q16552); assay: Inhibition of human IL-17A protein-induced GROα/CXCL1 production in HT-29 cells; format: cell-based; parameters: purchased R&D 317-ILB; host or cells: added exogenously to HT-29 cells; settings: 30 ng/mL human IL-17A protein, 48 h, GROα in supernatant by ELISA kit, read-out: Inhibitory IC50 of compounds on HT-29 cell GROα/CXCL1
T1 sequence (Q16552 20-155 limits assumed): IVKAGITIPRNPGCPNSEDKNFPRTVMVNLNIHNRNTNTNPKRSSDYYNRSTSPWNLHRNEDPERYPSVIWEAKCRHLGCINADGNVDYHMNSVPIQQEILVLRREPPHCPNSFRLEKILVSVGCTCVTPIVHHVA
Summary of the method: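 Compound dilutions were preincubated 1 h at 37 °C with 30 ng/mL human IL-17A, then added to HT-29 cells (5×10^4/well) for 48 h at 37 °C. GROα in supernatant quantified by ELISA; IC50 for inhibition of its production. Positive control: IL-17A antibody at […].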

Human IL-17AF = biological target: T2, Human IL-17AF (Homo sapiens, UniProt Q16552+Q96PD4); assay: IL-17AF ELISA (competitive ELISA, IL-17AF/IL-17Ra receptor-ligand binding); settings: human IL-17AF coated plate, human IL-17Ra, read-out: IC50, inhibitory activity of compounds on human IL-17AF
T2 construct: purchased Sino Biological Inc. CT047-H08H
T2 sequence (Q16552 24-155): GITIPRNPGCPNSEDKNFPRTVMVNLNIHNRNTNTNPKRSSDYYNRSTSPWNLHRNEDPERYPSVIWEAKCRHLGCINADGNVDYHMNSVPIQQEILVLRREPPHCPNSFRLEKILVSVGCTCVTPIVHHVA
T2 sequence (Q96PD4 31-163): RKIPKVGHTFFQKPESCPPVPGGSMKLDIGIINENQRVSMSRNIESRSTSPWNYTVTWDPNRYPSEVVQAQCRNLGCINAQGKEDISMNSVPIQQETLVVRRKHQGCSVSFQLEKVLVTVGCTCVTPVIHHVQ
Procedure: Experiment Example 2 IL-17AF ELISA
The inhibitory effects of human IL-17AF inhibitors on receptor-ligand binding were quantitatively determined by a competitive ELISA.
The ELISA was performed through the following steps.
Human IL-17AF (Sino Biological Inc., Cat #CT047-H08H) was diluted with coating buffer (50 mM PBS, pH 7.4) to reach a concentration of 0.625 μg/ml. 100 μL of the resulting solution was added to each well of a 96-well plate, and the plate was incubated at 37° C. for 30 min. In the blank group, 100 μL of coating buffer was added instead of the IL-17AF solution.
The plate was washed four times with 10 mM PBST (pH 7.4). 200 μL was used per well for each wash. After the final wash, the plate was tapped dry on absorbent paper.
Fresh 5% (w/v) skim milk solution was prepared before the experiment. For example, 5 grams of skim milk powder (Bio-Rad, Cat #170-6404) was completely dissolved in 100 mL of 10 mM PBST. 200 μL of the 5% (w/v) skim milk solution was added to each well, and the plate was incubated on a shaker at 25° C. for 30 min.
(S4) Preparation of 100× to-be-Tested Compound Solutions
During step (S3), the to-be-tested compound solutions were prepared. Each powdered compound was dissolved in dimethyl sulfoxide (DMSO) to reach a stock concentration of 10 mM. The to-be-tested compound solutions were then serially diluted four-fold with DMSO to obtain nine concentrations ranging from […].
(S6) Pre-Incubation of IL-17AF with to-be-Tested Compound Solutions
89 μL of PBST and 1 μL of each of the to-be-tested compound solutions were added to each well and mixed. The plate was pre-incubated at 25° C. for 10 min. In the blank group and the control group, 1 μL of DMSO was added instead of the to-be-tested compound solutions.
(S7) Incubation with Human IL-17Ra
10 μL of 100 nM IL-17Ra (Sino Biological Inc., Cat #10895-H03H) was added to each well, followed by incubation on a shaker at 25° C. for 30 min. The receptor solution was prepared in 10 mM PBST.
(S9) Incubation with Horseradish Peroxidase-Conjugated Antibody
100 μL of mouse anti-Fc tag HRP-conjugated antibody (Sino Biological Inc., Cat #10702-MM01T-H) was added to each well. The plate was incubated on a shaker at 25° C. for 30 min. The antibody was diluted with 5% (w/v) skim milk solution at 1:5,000 (v/v).
100 μL of TMB substrate solution (BD, Cat #555214) was added to each well. Substrate A and substrate B were freshly mixed at a volume ratio of 1:1 before use. The plate was incubated in the dark at 25° C. for 5-15 min.
(S12) Termination and Detection
The color reaction was terminated by addition of 2.5 M HCl. Absorbance was measured at 450 nm using a BMG PHERStar microplate reader.
(S13) Calculation of Half-Maximal Inhibitory Concentration (IC50)
The relative percent residual activity at each compound concentration was calculated according to Equation 1. The IC50 value of each test compound was then calculated in GraphPad 6 using the equation for log(inhibitor) versus normalized response with variable slope, as shown in Equation 2.
relative percent residual activity (%)=[(absorbance of sample−absorbance of blank group)/(absorbance of control group−absorbance of blank group)]%. Equation 1: […]
The compounds prepared in the Examples were tested for IL-17AF inhibitory activity according to the above method.

| Structure (SMILES) | IC50 (Human IL-17A) | IC50 (Human IL-17AF) |
| --- | --- | --- |
| Cc1[nH]nc2c1-c1cc(F)c(NC(=O)[C@@H](NC(=O)c3ccnn3C(C)C)C(C3CC3)C3CC3)cc1CN(C(C)C(F)(F)F)C(=O)C2 (mixture of isomers) [compound 173] | ≤ 100 nM | 100 to 500 nM |
| Cc1[nH]nc2c1-c1cc(F)c(NC(=O)[C@@H](NC(=O)c3ccnn3C(C)C)C(C3CC3)C3CC3)cc1CN(C(C)C(F)(F)F)C(=O)C2 (single isomer, unassigned) [compound 186a] | ≤ 100 nM | 100 to 500 nM |
| Cc1[nH]nc2c1-c1cnc(NC(=O)[C@@H](NC(=O)c3ccnn3C(C)C3CC3)C(C3CC3)C3CC3)cc1COCC2 (single isomer, unassigned) [compound 188a] | 100 to 500 nM | 100 to 500 nM |
| Cc1[nH]nc2c1-c1cnc(NC(=O)[C@@H](NC(=O)c3ccnn3C(C)C3CC3)C(C3CC3)C3CC3)cc1COCC2 (single isomer, unassigned) [compound 188b] | ≤ 100 nM | 100 to 500 nM |
| Cc1[nH]nc2c1-c1cnc(NC(=O)[C@@H](NC(=O)c3ccnn3C(C)CF)C(C3CC3)C3CC3)cc1COCC2 (single isomer, unassigned) [compound 189a] | ≤ 100 nM | 100 to 500 nM |
| Cc1[nH]nc2c1-c1cnc(NC(=O)[C@@H](NC(=O)c3ccnn3C(C)CF)C(C3CC3)C3CC3)cc1COCC2 (single isomer, unassigned) [compound 189b] | 100 to 500 nM | 100 to 500 nM |
| Cc1[nH]nc2c1-c1ccc(NC(=O)[C@@H](NC(=O)c3ccnn3C)C(C3CC3)C3CC3)cc1COCC2 [compound 2] | 100 to 500 nM | ≤ 100 nM |
| Cc1[nH]nc2c1-c1ccc(NC(=O)[C@@H](NC(=O)c3ccnn3C(C)C)C(C3CC3)C3CC3)cc1CN(C)C(=O)C2 [compound 22] | ≤ 100 nM | ≤ 100 nM |
| CCn1nccc1C(=O)N[C@H](C(=O)Nc1ccc2c(c1)CN(C)C(=O)Cc1n[nH]c(C)c1-2)C(C1CC1)C1CC1 [compound 23] | ≤ 100 nM | ≤ 100 nM |
| Cc1[nH]nc2c1-c1ccc(NC(=O)[C@@H](NC(=O)c3ccnn3C(C)C)C(C3CC3)C3CC3)cc1CNC(=O)C2 [compound 27] | 100 to 500 nM | 100 to 500 nM |
| CCn1nccc1C(=O)N[C@H](C(=O)Nc1ccc2c(c1)CNC(=O)Cc1n[nH]c(C)c1-2)C(C1CC1)C1CC1 [compound 28] | 100 to 500 nM | ≤ 100 nM |
| [2H]C([2H])([2H])C([2H])(n1nccc1C(=O)N[C@H](C(=O)Nc1ccc2c(c1)COCCc1n[nH]c(C)c1-2)C(C1CC1)C1CC1)C([2H])([2H])[2H] [compound 52] | ≤ 100 nM | 100 to 500 nM |
| [2H]C([2H])([2H])C([2H])(n1nccc1C(=O)N[C@H](C(=O)Nc1cc2c(cn1)-c1c(n[nH]c1C)CCOC2)C(C1CC1)C1CC1)C([2H])([2H])[2H] [compound 54] | ≤ 100 nM | ≤ 100 nM |
| COCCCn1nccc1C(=O)N[C@H](C(=O)Nc1cc2c(cc1F)-c1c(n[nH]c1C)CCOC2)C(C1CC1)C1CC1 [compound 58] | 100 to 500 nM | ≤ 100 nM |
| Cc1[nH]nc2c1-c1cc(F)c(NC(=O)[C@@H](NC(=O)c3ccnn3CCC(F)F)C(C3CC3)C3CC3)cc1COCC2 [compound 65] | 100 to 500 nM | ≤ 100 nM |
| [2H]C([2H])(C1CC1)n1nccc1C(=O)N[C@H](C(=O)Nc1cc2c(cc1F)-c1c(n[nH]c1C)CCOC2)C(C1CC1)C1CC1 [compound 76] | 100 to 500 nM | ≤ 100 nM |
| Cc1[nH]nc2c1-c1cc(F)c(NC(=O)[C@@H](NC(=O)c3ccnn3CCC(O)C(F)(F)F)C(C3CC3)C3CC3)cc1COCC2 (stereo partly shown) [compound 81] | 100 to 500 nM | ≤ 100 nM |
| Cc1[nH]nc2c1-c1cc(F)c(NC(=O)[C@@H](NC(=O)c3ccnn3CCCC(F)(F)F)C(C3CC3)C3CC3)cc1COCC2 [compound 84] | ≤ 100 nM | 100 to 500 nM |
| Cc1[nH]nc2c1-c1cc(F)c(NC(=O)[C@@H](NC(=O)c3ccnn3CCCF)C(C3CC3)C3CC3)cc1COCC2 [compound 86] | ≤ 100 nM | ≤ 100 nM |

Other lines, results leading:

| IC50 (Human IL-17A) | IC50 (Human IL-17AF) | Structure (SMILES) |
| --- | --- | --- |
| ≤ 100 nM | 100 to 500 nM | Cc1[nH]nc2c1-c1cc(F)c(NC(=O)[C@@H](NC(=O)c3ccnn3C(C)C3CC3)C(C3CC3)C3CC3)cc1COCC2 (single isomer, unassigned) [compound 41a] |
| ≤ 100 nM | ≤ 100 nM | Cc1[nH]nc2c1-c1cc(F)c(NC(=O)[C@@H](NC(=O)c3ccnn3C(C)C3CC3)C(C3CC3)C3CC3)cc1COCC2 (single isomer, unassigned) [compound 41b] |
| ≤ 100 nM | ≤ 100 nM | Cc1[nH]nc2c1-c1cc(F)c(NC(=O)[C@@H](NC(=O)c3ccnn3C(C)CF)C(C3CC3)C3CC3)cc1COCC2 (single isomer, unassigned) [compound 42a] |
| 100 to 500 nM | ≤ 100 nM | Cc1[nH]nc2c1-c1cc(F)c(NC(=O)[C@@H](NC(=O)c3ccnn3C(C)CF)C(C3CC3)C3CC3)cc1COCC2 (single isomer, unassigned) [compound 42b] |
| ≤ 100 nM | ≤ 100 nM | Cc1[nH]nc2c1-c1cc(F)c(NC(=O)[C@@H](NC(=O)c3ccnn3C(C)C)C(C3CC3)C3CC3)cc1COCC2 [compound 15] |
| 100 to 500 nM | 100 to 500 nM | CCn1nccc1C(=O)N[C@H](C(=O)Nc1cc2c(cc1F)-c1c(n[nH]c1C)CCOC2)C(C1CC1)C1CC1 [compound 16] |
| 100 to 500 nM | 100 to 500 nM | Cc1[nH]nc2c1-c1cc(F)c(NC(=O)[C@@H](NC(=O)c3ccnn3C)C(C3CC3)C3CC3)cc1COCC2 [compound 17] |
| 100 to 500 nM | ≤ 100 nM | CCn1nccc1C(=O)N[C@H](C(=O)Nc1cc2c(cc1F)-c1c(n[nH]c1C)CCOC2)[C@H]1CC[C@H](C)CC1 [compound 46] |
| 100 to 500 nM | 100 to 500 nM | Cc1[nH]nc2c1-c1cc(F)c(NC(=O)[C@@H](NC(=O)c3ccnn3C(C)C)C3CCCCC3)cc1COCC2 [compound 48] |
| 100 to 500 nM | 100 to 500 nM | Cc1[nH]nc2c1-c1cc(F)c(NC(=O)[C@@H](NC(=O)c3ccnn3CC3CC3)C(C3CC3)C3CC3)cc1COCC2 [compound 59] |
| 100 to 500 nM | ≤ 100 nM | Cc1[nH]nc2c1-c1cc(F)c(NC(=O)[C@@H](NC(=O)c3ccnn3CC3CCC3)C(C3CC3)C3CC3)cc1COCC2 [compound 60] |
| 100 to 500 nM | ≤ 100 nM | CSCCn1nccc1C(=O)N[C@H](C(=O)Nc1cc2c(cc1F)-c1c(n[nH]c1C)CCOC2)C(C1CC1)C1CC1 [compound 61] |
| 100 to 500 nM | ≤ 100 nM | CCCn1nccc1C(=O)N[C@H](C(=O)Nc1cc2c(cc1F)-c1c(n[nH]c1C)CCOC2)C(C1CC1)C1CC1 [compound 62] |
